In patent publication US11123350B2, “Metal delivery agents and therapeutic uses of the same” (THE UNIVERSITY OF MELBOURNE, priority 2006, dated 2021):

Tests used:
[1] = system: M17 human neuroblastoma cells; test: Ionophore assay (metal uptake, ICPMS); type: cell-based; details: 5 hours at 37° C., reported versus internal control Clioquinol
Method: M17 human neuroblastoma cells were plated out on 6 well plates and left overnight. Enough cells were added to give approximately 70% confluent the following day of the experiment.
The test cells were incubated in 1 ml of media and compound mix for 5 hours at 37° C. At the end of the incubation the media was removed with a vacuum aspirator and 1 ml of PBS added to dislodge the cells. Cells are then put into Eppendorf tubes and pelleted. The PBS is removed and the remaining cell pellets are frozen at −20° C.
Cell pellets of similar levels are placed in 1.5 ml microfuge tubes. To each tube was added 50 μl of concentrated Nitric Acid (Aristar, BDH) to each cell pellet and allowed each cell pellet was allowed to digest overnight. The samples were heated for 20 min at 90° C. to complete the digestion. The volume of each sample was reduced to ˜45 ? l after digestion. To each was added 1 ml of the 1% Nitric Acid diluent. Measurements were made using a Varian UltraMass ICPMS instrument under operating conditions suitable for routine multi-element analysis.
The instrument was calibrated using Blank, 10, 50 and 100 ppb of a certified multi-element ICPMS standard solution (ICP-MS-CAI2-1, Accustandard) for Fe, Cu and Zn in 1% nitric acid. Used an certified internal standard solution containing 100 ppb Yttrium (Y 89) as an internal control (ICP-MS-IS-MIX1-1, Accustandard).

EAE mouse model = test: Experimental autoimmune encephalomyelitis (EAE) mouse model of MS; type: in vivo; details: daily oral treatment
From the text: (§1) I. Cu(ATSM) is protective in mouse models of MS. The two most widely used mouse models of MS are the experimental autoimmune encephalomyelitis (EAE) and cuprizone models. Some features of progressive MS are evident in each model. Administration of Cu(ATSM) to these mice (daily oral treatment) established that: (a) Cu(ATSM) improved body weight changes and neurological symptoms evident in the EAE mouse model; (b) Cu(ATSM) improved body weight changes evident in the cuprizone mouse model; and (c) treating with Cu(ATSM) improves myelination in the corpus callosum of the cuprizone mouse model.

G93A-SOD1 mice = test: G93A SOD1 ALS mice: survival and onset of paralysis
[2] = system: APP-transfected Chinese Hamster Ovary (APP-CHO) cells; test: Cellular copper uptake of Cu-BTSC complexes (ICP-MS); type: cell-based
Method: APP-transfected Chinese Hamster Ovary (APP-CHO) cells were treated with a range of [Cu(BTSC] complexes with dialkyl backbones at 1-50 μM for 6 hr in serum-free culture medium. Cells were washed twice with phosphate buffered saline (PBS) and cells scraped into fresh PBS and pelleted at 10,000 rpm in a microfuge for 5 min. Supernatant was discarded and cell pellets frozen at −70° C. until metal levels were determined by inductively-coupled plasma mass spectrometry (ICP-MS) at the Department of Pathology, University of Melbourne.

WT cells = test: Dopamine induced cell death, WT cells (MTT); type: cell-based
Method: A series of trials were conducted in which the effect of CuGTSM on inhibiting Dopamine induced cell death were conducted on WT cells and A30P cells. The protocol used was as follows.
The cell line was maintained in OPTI-MEM (Gibco) supplemented with 10% fetal calf serum (FCS), Non-essential amino acids, sodium pyruvate and Penn/Strep. Cells were incubated at 37° C. in a humidified atmosphere of 95% air and 5% CO2. Cell assays were plated out into 48 well culture plates at 4×10^4 cells per well. Cells were left to settle overnight then incubated with drugs for 24h prior to being subjected to MTT assays for cell viability.
The viability of cells was assessed using an MTT assay. […] The mixture of media and reagents e.g. Dopamine was aspirated off and media containing 5 mg/mI MTT is added and the plate incubated for 1 h at 37° C. The remaining media/MTT solution is aspirated off and the cells were then solubilized with DMSO. The 48 well plate is then read at 595 nm on a plate reader.
In essence a series of WT cells and A30P cells were treated with a control, Dopamine, CuGTSM, Cu ATSM, and combinations of Dopamine and CuGTSM, and dopamine and CuATSM at various concentrations to determine the ability of the compound to act as an anti-oxidant and […] cell death. The results are shown in table 15 (WT cells) and Table 16 (A30P cells)

[3] = cited from earlier work
[4] = system: mice with 6-OHDA lesion of the SNpc; test: 6-OHDA lesion Parkinson's disease model, amphetamine-induced rotation; type: in vivo; details: oral gavage 10 or 30 mg/kg daily, 7 days pre-lesion and 14 days post lesion
cuprizone mouse model = test: Cuprizone mouse model of MS; type: in vivo; details: daily oral treatment
From the text: as §1

Question: What does the source list for `CN=C([S-])N/N=C(C)/C(C)=N/NC([S-])=NC.[64Cu+2]` [Complex A2, copper(II)diacetylbis(N(4)-methylthiosemicarbazone)]?
Answer: Ionophore (% uptake of metal at 10 μm) [1]: 157.1%; body weight changes in the EAE mouse model (EAE mouse model): improved; neurological symptoms in the EAE mouse model (EAE mouse model): improved; onset of paralysis in ALS mice (G93A-SOD1 mice; 30 mg/kg gavage once daily (5 days/week)): significantly delays; Increased Life Span (G93A-SOD1 mice; G93A-SOD1 mice, present results): 31 to 33 days; fold increase in cellular copper levels compared to untreated control cells ([2]; 1-50 μM, 6 hr): 177±9 fold; cellular Copper level ([2]; treated, control 4.5): 796 ng/mg protein; % recovery (WT cells; Dopamine 500 μm + complex 0.01 μM): 64.28%; % recovery (WT cells; Dopamine 500 μm + complex 0.1 μM): 103.13%; reduction potential E1/2 ([3]; Cu(II) to Cu(I)): −0.59 V; Cu(II)/Cu(I) reduction potential, harder to reduce than [Cu(GTSM)] ([3]; difference to [Cu(GTSM)]): ~160 mV; amphetamine-induced rotation versus control group [4]: performed better; body weight changes in the cuprizone mouse model (cuprizone mouse model): improved; myelination in the corpus callosum (cuprizone mouse model): improves
